Source: patent US10689377B2 (Mirati Therapeutics, Inc., priority 2017, dated 2020)

Experiments:
[1] = target: KRas G12C (Homo sapiens, UniProt P01116, C118S/C51S/C80L/G12C); assay: KRas G12C Modification Assay (LCMS detection of covalent adduct); type: binding; details: normalized percent of control; 5 μM concentration for 3 hours
Method in brief: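 Intact protein analysed by LC/MS with deconvolution; unmodified protein signal normalized to no-compound control and reported as percent of control (POC).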

[2] = target: KRas G12C (Homo sapiens, UniProt P01116, G12C); assay: Cellular inhibition of KRas G12C measured by Phospho-ERK in NCI-H358 cells; type: cell-based; details: pERK(Thr202/Tyr204) normalized with GAPDH, NCI-H358 cells, 3 hours; read-out: IC50
Method in brief: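 Ratio of phospho-ERK(Thr202/Tyr204) to GAPDH, read by near-infrared secondary antibodies on fixed, permeabilised NCI-H358 cells, expressed relative to DMSO control. Compound exposure was 3 h at 0.5% DMSO. IC50 values come from 4-parameter curve fits.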

In the case of `Cc1cccc2cccc(N3CCc4c(nc(OC[C@@H]5C[C@@H](F)CN5C)nc4N4CCN(C(=O)/C=C/CF)[C@@H](CC#N)C4)C3)c12` [Example 578, 2-[(2S)-1-[(E)-4-Fluorobut-2-enoyl]-4-[2-[[(2S,4R)-4-fluoro-1-methyl-pyrrolidin-2-yl]methoxy]-7-(8-methyl-1-naphthyl)-6,8-dihydro-5H-pyrido[3,4-d]pyrimidin-4-yl]piperazin-2-yl] acetonitrile], the POC [1] is reported as “C (“C”>50% POC)” and the IC50 [2] is reported as 0.0001 to 1 µM.
With `Cc1cccc2cccc(N3CCc4c(nc(OC[C@@H]5CCN(C)C5)nc4N4CCN(C(=O)/C=C/CF)[C@@H](CC#N)C4)C3)c12` [Example 581, 2-[(2S)-1-[(E)-4-fluorobut-2-enoyl]-4-[7-(8-methyl-1-naphthyl)-2-[[(3R)-1-methylpyrrolidin-3-yl]methoxy]-6,8-dihydro-5H-pyrido[3,4-d]pyrimidin-4-yl]piperazin-2-yl]acetonitrile] the POC [1] was “C (“C”>50% POC)” and the IC50 [2] was 0.0001 to 1 µM.
In the case of `CN1C[C@H](F)C[C@H]1COc1nc2c(c(N3CCN(C(=O)/C=C/CF)[C@@H](CC#N)C3)n1)CCN(c1cccc3cccc(Cl)c13)C2` [Example 582, 2-((S)-4-(7-(8-Chloronaphthalen-1-yl)-2-(((2S,4R)-4-fluoro-1-methylpyrrolidin-2-yl)methoxy)-5,6,7,8-tetrahydropyrido[3,4-d]pyrimidin-4-yl)-1-((E)-4-fluorobut-2-enoyl)piperazin-2-yl)acetonitrile], the POC [1] is reported as “C (“C”>50% POC)” and the IC50 [2] is reported as 0.0001 to 1 µM.
With `CO[C@@H]1C[C@@H](COc2nc3c(c(N4CCN(C(=O)/C=C/CF)[C@@H](CC#N)C4)n2)CCN(c2cccc4cccc(Cl)c24)C3)N(C)C1` [Example 583, 2-[(2S)-4-[7-(8-chloro-1-naphthyl)-2-[[(2S,4R)-4-methoxy-1-methyl-pyrrolidin-2-yl]methoxy]-6,8-dihydro-5H-pyrido[3,4-d]pyrimidin-4-yl]-1-[(E)-4-fluorobut-2-enoyl]piperazin-2-yl]acetonitrile] the POC [1] was “C (“C”>50% POC)” and the IC50 [2] was 0.0001 to 1 µM.
With `N#CC[C@H]1CN(c2nc(OCCCN3C[C@@H]4C[C@H]3CO4)nc3c2CCN(c2cccc4cccc(Cl)c24)C3)CCN1C(=O)/C=C/CF` [Example 585, 2-((S)-4-(2-(3-((1S,4S)-2-oxa-5-azabicyclo[2.2.1]heptan-5-yl)propoxy)-7-(8-chloronaphthalen-1-yl)-5,6,7,8-tetrahydropyrido[3,4-d]pyrimidin-4-yl)-1-((E)-4-fluorobut-2-enoyl)piperazin-2-yl)acetonitrile] the POC [1] was “C (“C”>50% POC)” and the IC50 [2] was 0.0001 to 1 µM.
In the case of `CN1CCC[C@@H]1COc1nc2c(c(N3CCN(C(=O)/C=C/CF)[C@@H](CC#N)C3)n1)CCN(c1cccc3cccc(Cl)c13)C2` [Example 586, 2-[(2S)-4-[7-(8-chloro-1-naphthyl)-2-[[(2R)-1-methylpyrrolidin-2-yl]methoxy]-6,8-dihydro-5H-pyrido[3,4-d]pyrimidin-4-yl]-1-[(E)-4-fluorobut-2-enoyl]piperazin-2-yl]acetonitrile], the POC [1] is reported as “C (“C”>50% POC)” and the IC50 [2] is reported as 0.0001 to 1 µM.
In the case of `CC(=O)N(C)C/C=C/C(=O)N1CCN(c2nc(OC[C@@H]3CCCN3C)nc3c2CCN(c2cccc4cccc(C)c24)C3)C[C@@H]1CC#N` [Example 587], the POC [1] is reported as “A (“A”≤25% POC)” and the IC50 [2] is reported as greater than 1 µM.
In the case of `C=C(F)C(=O)N1CCN(c2nc(OC[C@@H]3CCCN3C)nc3c2CCN(c2cccc4cccc(Br)c24)C3)C[C@@H]1CC#N` [Example 588, 2-((S)-4-(7-(8-Bromonaphthalen-1-yl)-2-(((S)-1-methylpyrrolidin-2-yl)methoxy)-5,6,7,8-tetrahydropyrido[3,4-d]pyrimidin-4-yl)-1-(2-fluoroacryloyl)piperazin-2-yl)acetonitrile], the POC [1] is reported as “C (“C”>50% POC)” and the IC50 [2] is reported as 0.0001 to 1 µM.
For `C=C(F)C(=O)N1CCN(c2nc(OC[C@@H]3CCCN3C)nc3c2CCN(c2cccc4cccc(C(F)(F)F)c24)C3)C[C@@H]1CC#N` [Example 589, 2-((S)-1-(2-Fluoroacryloyl)-4-(2-(((S)-1-methylpyrrolidin-2-yl)methoxy)-7-(8-(trifluoromethyl)naphthalen-1-yl)-5,6,7,8-tetrahydropyrido[3,4-d]pyrimidin-4-yl)piperazin-2-yl)acetonitrile], the POC [1] was “C (“C”>50% POC)” and the IC50 [2] was 0.0001 to 1 µM.
In the case of `C=C(F)C(=O)N1CCN(c2nc(OC[C@@H]3CCCN3C)nc3c2CCN(c2cccc4cccc(C5CC5)c24)C3)C[C@@H]1CC#N` [Example 590, 2-((S)-4-(7-(8-Cyclopropylnaphthalen-1-yl)-2-(((S)-1-methylpyrrolidin-2-yl)methoxy)-5,6,7,8-tetrahydropyrido[3,4-d]pyrimidin-4-yl)-1-(2-fluoroacryloyl)piperazin-2-yl)acetonitrile], the POC [1] is reported as “B (“B”>25% POC-≤50% POC)” and the IC50 [2] is reported as greater than 1 µM.
With `C=C(F)C(=O)N1CCN(c2nc(OC[C@@H]3CCCN3C)nc3c2CCN(c2cccc4cccc(C(C)C)c24)C3)C[C@@H]1CC#N` [Example 591] the POC [1] was “B (“B”>25% POC-≤50% POC)” and the IC50 [2] was greater than 1 µM.
`C=C(F)C(=O)N1CCN(c2nc(OC[C@@H]3CCCN3C)nc3c2CCN(c2cccc4ccnc(C)c24)C3)C[C@@H]1CC#N` [Example 592] was tested, and the POC [1] was “C (“C”>50% POC)” and the IC50 [2] was greater than 1 µM.
`C=C(F)C(=O)N1CCN(c2nc(OC[C@@H]3CCCN3C)nc3c2CCN(c2cncc4cccc(Cl)c24)C3)C[C@@H]1CC#N` [Example 593, 2-((S)-4-(7-(5-Chloroisoquinolin-4-yl)-2-(((S)-1-methylpyrrolidin-2-yl)methoxy)-5,6,7,8-tetrahydropyrido[3,4-d]pyrimidin-4-yl)-1-(2-fluoroacryloyl)piperazin-2-yl)acetonitrile] was tested, and the POC [1] was “C (“C”>50% POC)” and the IC50 [2] was 0.0001 to 1 µM.
With `C=C(F)C(=O)N1CCN(c2nc(OC[C@@H]3CCCN3C)nc3c2CCN(c2nccc4cccc(Br)c24)C3)C[C@@H]1CC#N` [Example 594, 2-((S)-4-(7-(8-Bromoisoquinolin-1-yl)-2-(((S)-1-methylpyrrolidin-2-yl)methoxy)-5,6,7,8-tetrahydropyrido[3,4-d]pyrimidin-4-yl)-1-(2-fluoroacryloyl)piperazin-2-yl)acetonitrile] the POC [1] was “A (“A”≤25% POC)” and the IC50 [2] was greater than 1 µM.
In the case of `C=C(F)C(=O)N1CCN(c2nc(OC[C@@H]3CCCN3C)nc3c2CCN(c2cccc4ccnc(Cl)c24)C3)C[C@@H]1CC#N` [Example 595, 2-((S)-4-(7-(1-chloroisoquinolin-8-yl)-2-(((S)-1-methylpyrrolidin-2-yl)methoxy)-5,6,7,8-tetrahydropyrido[3,4-d]pyrimidin-4-yl)-1-(2-fluoroacryloyl)piperazin-2-yl)acetonitrile], the POC [1] is reported as “C (“C”>50% POC)” and the IC50 [2] is reported as 0.0001 to 1 µM.
In the case of `C=C(F)C(=O)N1CCN(c2nc(OC[C@@H]3CCCN3Cc3ccccc3)nc3c2CCN(c2cccc4cccc(C)c24)C3)C[C@@H]1CC#N` [Example 596, 2-((S)-4-(2-(((S)-1-Benzylpyrrolidin-2-yl)methoxy)-7-(8-methylnaphthalen-1-yl)-5,6,7,8-tetrahydropyrido[3,4-d]pyrimidin-4-yl)-1-(2-fluoroacryloyl)piperazin-2-yl)acetonitrile], the POC [1] is reported as “C (“C”>50% POC)” and the IC50 [2] is reported as 0.0001 to 1 µM.
With `C=C(F)C(=O)N1CCN(c2nc(OC[C@@H]3CCCN3CCF)nc3c2CCN(c2cccc4cccc(Cl)c24)C3)C[C@@H]1CC#N` [Example 598, 2-((S)-4-(7-(8-Chloronaphthalen-1-yl)-2-(((S)-1-(2-fluoroethyl)pyrrolidin-2-yl)methoxy)-5,6,7,8-tetrahydropyrido[3,4-d]pyrimidin-4-yl)-1-(2-fluoroacryloyl)piperazin-2-yl)acetonitrile] the POC [1] was “C (“C”>50% POC)” and the IC50 [2] was 0.0001 to 1 µM.
With `C=C(F)C(=O)N1CCN(c2nc(SC[C@@H]3CCCN3C)nc3c2CCN(c2cccc4cccc(C)c24)C3)C[C@@H]1CC#N` [Example 599, 2-((S)-1-(2-Fluoroacryloyl)-4-(7-(8-methylnaphthalen-1-yl)-2-((((S)-1-methylpyrrolidin-2-yl)methyl)thio)-5,6,7,8-tetrahydropyrido [3,4-d]pyrimidin-4-yl)piperazin-2-yl)acetonitrile] the POC [1] was “C (“C”>50% POC)” and the IC50 [2] was greater than 1 µM.
`C=C(F)C(=O)N1CCN(c2nc(OC[C@@H]3CCCN3C)nc3c2CCN(c2cncc(Cl)c2C(F)(F)F)C3)C[C@@H]1CC#N` [Example 600, 2-((S)-4-(7-(5-Chloro-4-(trifluoromethyl)pyridin-3-yl)-2-(((S)-1-methylpyrrolidin-2-yl)methoxy)-5,6,7,8-tetrahydropyrido[3,4-d]pyrimidin-4-yl)-1-(2-fluoroacryloyl)piperazin-2-yl)acetonitrile] was tested, and the POC [1] was “C (“C”>50% POC)” and the IC50 [2] was 0.0001 to 1 µM.
